These results are taken from PubChem BioAssay AID1259411 (Chemical Carcinogenesis Research Information System (CCRIS), 2018).

Each structure is given as a SMILES string. Activity calls are given as the source filed them. No rule for the calls is given here.

This series relates to rodent carcinogenicity bioassays, tumor incidence. Kind of series: CCRIS carcinogenicity studies. In a few lines: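 NCI-built, expert-reviewed records of carcinogenicity and related test outcomes (mutagenicity, tumor promotion/inhibition) compiled from published and report sources, historical span 1985-2011, not updated.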

Take `ClC(Cl)Br`: the carcinogen call was “inactive; negative” (Species: FISH, Strain/Sex: ORYZIAS LATIPES/FEMALE, Route: IMMERSION, Dose: 0, 0.018, 0.143, 1.424 MG/L AQUEOUS SOLUTION FOR 6 MO (STUDY DURATION: 6 MO), Dose: 0, 0.018, 0.143, 1.424 MG/L AQUEOUS SOLUTION FOR 6 MO (STUDY DURATION: 6 MO)); “inactive; negative” (Species: FISH, Strain/Sex: ORYZIAS LATIPES/FEMALE, Route: IMMERSION, Dose: 0, 0.018, 0.143, 1.424 MG/L AQUEOUS SOLUTION FOR 9 MO (STUDY DURATION: 9 MO), Dose: 0, 0.018, 0.143, 1.424 MG/L AQUEOUS SOLUTION FOR 9 MO (STUDY DURATION: 9 MO)); “inactive; negative” (Species: FISH, Strain/Sex: ORYZIAS LATIPES/MALE, Route: IMMERSION, Dose: 0, 0.018, 0.143, 1.424 MG/L AQUEOUS SOLUTION FOR 6 MO (STUDY DURATION: 6 MO), Dose: 0, 0.018, 0.143, 1.424 MG/L AQUEOUS SOLUTION FOR 6 MO (STUDY DURATION: 6 MO)); “inactive; negative” (Species: FISH, Strain/Sex: ORYZIAS LATIPES/MALE, Route: IMMERSION, Dose: 0, 0.018, 0.143, 1.424 MG/L AQUEOUS SOLUTION FOR 9 MO (STUDY DURATION: 9 MO), Dose: 0, 0.018, 0.143, 1.424 MG/L AQUEOUS SOLUTION FOR 9 MO (STUDY DURATION: 9 MO)); “active; positive” (Species: MOUSE, Strain/Sex: B6C3F1/FEMALE, Route: GAVAGE, Dose: 0, 75, 150 MG/KG IN CORN OIL 5D/WK FOR 102 WK (STUDY DURATION: 105 WK), Dose: 0, 75, 150 MG/KG IN CORN OIL 5D/WK FOR 102 WK (STUDY DURATION: 105 WK), Tumor Site: Type of Lesion: LIVER: HEPATOCELLULAR ADENOMA, LIVER: HEPATOCELLULAR CARCINOMA, LIVER: HEPATOCELLULAR ADENOMA OR CARCINOMA, Tumor Site: Type of Lesion: LIVER: HEPATOCELLULAR ADENOMA, LIVER: HEPATOCELLULAR CARCINOMA, LIVER: HEPATOCELLULAR ADENOMA OR CARCINOMA); “active; positive” (Species: MOUSE, Strain/Sex: B6C3F1/MALE, Route: GAVAGE, Dose: 0, 25, 50 MG/KG IN CORN OIL 5D/WK FOR 102 WK (STUDY DURATION: 105 WK), Dose: 0, 25, 50 MG/KG IN CORN OIL 5D/WK FOR 102 WK (STUDY DURATION: 105 WK), Tumor Site: Type of Lesion: KIDNEY: TUBULAR CELL ADENOMA OR ADENOCARCINOMA). The carcinogen call is “inactive; negative” (Species: MOUSE, Strain/Sex: B6C3F1/MALE, Route: ORAL, Dose: 0, 8.1, 27.2, 43.4 MG/KG/D IN 0.25% EMULPHOR IN DRINKING WATER FOR 100 WK (STUDY DURATION: 100 WK), Dose: 0, 8.1, 27.2, 43.4 MG/KG/D IN 0.25% EMULPHOR IN DRINKING WATER FOR 100 WK (STUDY DURATION: 100 WK)); “inactive; negative” (Species: Mouse, Strain/Sex: B6C3F1/female, Route: Oral, Dose: 0, 175, 350, 700 mg/L (about 0, 9, 18, and 36 mg/kg, respectively) in drinking water for 104 wk, Dose: 0, 175, 350, 700 mg/L (about 0, 9, 18, and 36 mg/kg, respectively) in drinking water for 104 wk); “active; positive” (Species: RAT, Strain/Sex: F344/FEMALE, Route: GAVAGE, Dose: 0, 50, 100 MG/KG IN CORN OIL 5D/WK FOR 102 WK (STUDY DURATION: 104 WK), Dose: 0, 50, 100 MG/KG IN CORN OIL 5D/WK FOR 102 WK (STUDY DURATION: 104 WK), Tumor Site: Type of Lesion: LARGE INTESTINE: ADENOMATOUS POLYP, LARGE INTESTINE: ADENOCARCINOMA, LARGE INTESTINE: ADENOMATOUS POLYP OR ADENOCARCINOM, Tumor Site: Type of Lesion: LARGE INTESTINE: ADENOMATOUS POLYP, LARGE INTESTINE: ADENOCARCINOMA, LARGE INTESTINE: ADENOMATOUS POLYP OR ADENOCARCINOM); “active; positive” (Species: RAT, Strain/Sex: F344/MALE, Route: GAVAGE, Dose: 0, 50, 100 MG/KG IN CORN OIL 5D/WK FOR 102 WK (STUDY DURATION: 104 WK), Dose: 0, 50, 100 MG/KG IN CORN OIL 5D/WK FOR 102 WK (STUDY DURATION: 104 WK), Tumor Site: Type of Lesion: LARGE INTESTINE: ADENOCARCINOMA, LARGE INTESTINE: ADENOMATOUS POLYP, LARGE INTESTINE: ADENOMATOUS POLYP OR ADENOCARCINOM, Tumor Site: Type of Lesion: LARGE INTESTINE: ADENOCARCINOMA, LARGE INTESTINE: ADENOMATOUS POLYP, LARGE INTESTINE: ADENOMATOUS POLYP OR ADENOCARCINOM); “active; positive” (Species: RAT, Strain/Sex: F344/MALE, Route: ORAL, Dose: 0, 3.9, 20.6, 36.3 MG/KG/D IN 0.25% EMULPHOR IN DRINKING WATER FOR 100 WK (STUDY DURATION: 100 WK), Dose: 0, 3.9, 20.6, 36.3 MG/KG/D IN 0.25% EMULPHOR IN DRINKING WATER FOR 100 WK (STUDY DURATION: 100 WK), Tumor Site: Type of Lesion: LIVER: HEPATOCELLULAR ADENOMA, HEPATOCELLULAR ADENOMA OR HEPATOCELLULAR CARCINOMA); “active; positive” (Species: RAT, Strain/Sex: WISTAR/FEMALE, Route: ORAL, Dose: 0, 1.2 ML/L (15 MILLIMOLAR) IN DRINKING WATER FOR 72 WK THEN DOSE HALVED FOR DURATION OF STUDY (STUDY DURATION: LIFETIME, Tumor Site: Type of Lesion: LIVER: NEOPLASTIC NODULES, LYMPHOID TISSUE: LYMPHOSARCOMA). The carcinogen call is, setting by setting: (Species: RAT, Strain/Sex: WISTAR/MALE, Route: ORAL, Dose: 0, 1.2 ML/L (15 MILLIMOLAR) IN DRINKING WATER FOR 72 WK THEN DOSE HALVED FOR DURATION OF STUDY (STUDY DURATION: LIFETIME) “inactive; negative”; (Species: Rat, Strain/Sex: F344/N/male, Route: Oral, Dose: 0, 175, 350, 700 mg/L (about 0, 6, 12, and 25 mg/kg, respectively) in drinking water for 104 wk, Dose: 0, 175, 350, 700 mg/L (about 0, 6, 12, and 25 mg/kg, respectively) in drinking water for 104 wk) “inactive; negative”.

As to `Nc1ccc(/C=C/c2ccccc2)cc1`, the carcinogen call (Species: RAT, Strain/Sex: HOLTZMAN/FEMALE, Route: ORAL, Dose: 0, 0.0038% IN DIET FOR 13 WK BEGINNING AT WEANING (STUDY DURATION: 40 WK), Tumor Site: Type of Lesion: EAR DUCT GLAND: CARCINOMA) was “active; positive” and the carcinogen call (Species: RAT, Strain/Sex: HOLTZMAN/FEMALE, Route: SUBCUTANEOUS, Dose: 0. 5.3 UMOL SUSPENDED IN 0.2 ML TRICAPRYLIN 1/WK FOR 5 WK (STUDY DURATION: 10 MO), Tumor Site: Type of Lesion: MAMMARY GLAND: CARCINOMA) is “active; positive”.

`CNc1ccc(N=Nc2ccccc2)cc1`: the carcinogen call was “inactive; negative” (Species: MOUSE, Strain/Sex: B6C3F1/FEMALE, Route: INTRAPERITONEAL, Dose: 0, 0.3 UMOL/G IN TRIOCTANOIN ONCE ON DAY 1 FOLLOWED BY 0.4 UMOL/G ONCE ON DAY 8, 15 AND 22 (STUDY DURATION: 10 MO)); “active; positive” (Species: MOUSE, Strain/Sex: B6C3F1/MALE, Route: INTRAPERITONEAL, Dose: 0, 0.017, 0.05, 0.15, 0.45 UMOL/G ONCE IN TRIOCTANOIN (STUDY DURATION: 10 MO), Dose: 0, 0.017, 0.05, 0.15, 0.45 UMOL/G ONCE IN TRIOCTANOIN (STUDY DURATION: 10 MO), Tumor Site: Type of Lesion: LIVER: HEPATOMA); “active; positive” (Species: MOUSE, Strain/Sex: B6C3F1/MALE, Route: INTRAPERITONEAL, Dose: 0, 0.3 UMOL/G IN TRIOCTANOIN ONCE ON DAY 1 FOLLOWED BY 0.4 UMOL/G ONCE ON DAY 8, 15 AND 22 (STUDY DURATION: 10 MO), Tumor Site: Type of Lesion: LIVER: HEPATOMA); “active; positive” (Species: MOUSE, Strain/Sex: C3H/MALE, Route: INTRAPERITONEAL, Dose: 0, 0.45 UMOL/G ONCE IN TRIOCTANOIN (STUDY DURATION: 11 MO), Tumor Site: Type of Lesion: LIVER: HEPATOMA); “active; positive” (Species: MOUSE, Strain/Sex: C57BL/MALE, Route: INTRAPERITONEAL, Dose: 0, 0.45 UMOL/G ONCE IN TRIOCTANOIN (STUDY DURATION: 11 MO), Tumor Site: Type of Lesion: LIVER: HEPATOMA); “active; positive” (Species: RAT, Strain/Sex: F344/MALE, Route: INTRAPERITONEAL, Dose: 0, 0.3 UMOL/G IN TRIOCTANOIN ONCE ON DAY 1 FOLLOWED BY 0.4 UMOL/G ONCE ON DAY 8, 15 AND 22 (STUDY DURATION: 24 MO), Tumor Site: Type of Lesion: LIVER: HEPTOCELLULAR CARCINOMA). For the same compound, the carcinogen call runs as follows: (Species: RAT, Strain/Sex: SHERMAN, Route: ORAL, Dose: 0.056% IN DIET FOR 132 TO 250 D, Tumor Site: Type of Lesion: LIVER: HEPATOMA) “active; positive”; (Species: RAT, Strain/Sex: SPRAGUE-DAWLEY/MALE, Route: ORAL, Dose: 0.056% IN DIET FOR 4 MO, Tumor Site: Type of Lesion: LIVER: HEPATOMA) “active; positive”.

As to `C#C[C@]1(O)CC[C@H]2[C@@H]3CCc4cc(O)ccc4[C@H]3[C@@H](OC)C[C@@]21C`, for the setting “Species: HAMSTER, Strain/Sex: SYRIAN/MALE, Route: SUBCUTANEOUS IMPLANT, Dose: 0, 20 MG IN PELLETS IMPLANTED EVERY 2.5 MO FOR 9 MO (STUDY DURATION: 9 MO), Tumor Site: Type of Lesion: KIDNEY: TUMOR”, the carcinogen call was “active; positive”.
